Source: patent US9518018B2, “3-alkoxy, thioalkyl and amino-4-amino-6-(substituted)picolinates and their use as herbicides” (Dow AgroSciences LLC, priority 2011, dated 2016)
Where two headings read alike, the source gives them in different places.

Experiments:
[1] = system: ORYSA: rice (Oryza sativa); assay: Post-Emergent Test I herbicidal activity; assay type: in vivo; conditions: post-emergence, 336 h, read-out: Visual Growth Reduction (%)-14 Days after Application ORYSA
Summary of the method: (§1)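 Greenhouse plants at first-second true leaf stage sprayed post-emergence by track sprayer at 187 L/ha with compound in acetone/DMSO/water/isopropanol carrier with crop oil concentrate and Triton X-155, top rate plus ½× to 1/16× serial rates. Injury scored visually at 14 d, 0-100% versus untreated plants; GR20, GR50, GR80 from probit analysis.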

[2] = system: ABUTH: velvetleaf (Abutilon theophrasti); assay: Post-Emergent Test I herbicidal activity; assay type: in vivo; conditions: for pest or weed control at 17.5 g/ha: Table 4, 17.5 g ai/ha; for pest or weed control at 35 g/ha: Table 4, 35 g ai/ha; for pest or weed control at 70 g/ha: Table 4, 70 g ai/ha; for GR20 ABUTH: Table 4, growth reduction of 20% of plant growth; for GR20 ABUTH / GR50 ABUTH / GR80 ABUTH: 14 days after application, probit analysis; for GR50 ABUTH: Table 4, growth reduction of 50% of plant growth; for GR80 ABUTH: Table 4, growth reduction of 80% of plant growth
Summary of the method: as §1

[3] = system: ECHCG: barnyardgrass (Echinochloa crus-galli); assay: Post-Emergent Test I herbicidal activity; assay type: in vivo; conditions: post-emergence, 336 h, read-out: Visual Growth Reduction (%)-14 Days after Application ECHCG
Summary of the method: as §1

[4] = system: EPHHL: wild poinsettia (Euphorbia heterophylla); assay: Post-Emergent Test I herbicidal activity; assay type: in vivo; conditions: post-emergence, 336 h, read-out: Visual Growth Reduction (%)-14 Days after Application EPHHL
Summary of the method: as §1

ZEAMX: corn (Zea mays) = assay: Post-Emergent Test I herbicidal activity; assay type: in vivo; conditions: for GR20 ZEAMX: Table 4, growth reduction of 20% of plant growth; for GR20 ZEAMX / GR50 ZEAMX / GR80 ZEAMX: 14 days after application, probit analysis; for GR50 ZEAMX: Table 4, growth reduction of 50% of plant growth; for GR80 ZEAMX: Table 4, growth reduction of 80% of plant growth; for pest or weed control at 17.5 g/ha: Table 4, 17.5 g ai/ha; for pest or weed control at 35 g/ha: Table 4, 35 g ai/ha; for pest or weed control at 70 g/ha: Table 4, 70 g ai/ha
Summary of the method: as §1

[5] = system: CYPES: yellow nutsedge (Cyperus esculentus); assay: Post-Emergent Test I herbicidal activity; assay type: in vivo; conditions: post-emergence, 336 h, read-out: Visual Growth Reduction (%)-14 Days after Application CYPES
Summary of the method: as §1

[6] = system: CHEAL: lambsquarters (Chenopodium album); assay: Post-Emergent Test I herbicidal activity; assay type: in vivo; conditions: for pest or weed control at 17.5 g/ha: Table 4, 17.5 g ai/ha; for pest or weed control at 35 g/ha: Table 4, 35 g ai/ha; for pest or weed control at 70 g/ha: Table 4, 70 g ai/ha; for GR20 CHEAL: Table 4, growth reduction of 20% of plant growth; for GR20 CHEAL / GR50 CHEAL / GR80 CHEAL: 14 days after application, probit analysis; for GR50 CHEAL: Table 4, growth reduction of 50% of plant growth; for GR80 CHEAL: Table 4, growth reduction of 80% of plant growth
Summary of the method: as §1

[7] = Abutilon theophrasti, post-emergence, 336 h, read-out: Visual Growth Reduction (%)-14 Days after Application ABUTH
[8] = Abutilon theophrasti, post-emergence, 336 h, Table 4, 140 g ai/ha, read-out: Visual Growth Reduction (%)-14 Days after Application ABUTH
[9] = Zea mays, post-emergence, 336 h, read-out: Visual Growth Reduction (%)-14 Days after Application ZEAMX
[10] = Zea mays, post-emergence, 336 h, Table 4, 140 g ai/ha, read-out: Visual Growth Reduction (%)-14 Days after Application ZEAMX
[11] = Chenopodium album, post-emergence, 336 h, read-out: Visual Growth Reduction (%)-14 Days after Application CHEAL

| Compound | pest or weed control at 17.5 g/ha [2, 7] | pest or weed control at 35 g/ha [2, 7] | pest or weed control at 70 g/ha [2, 7] | pest or weed control at 140 g/ha [2, 8] | GR20 ABUTH [2] | GR50 ABUTH [2] | GR80 ABUTH [2] | GR20 ZEAMX (ZEAMX: corn (Zea mays)) | GR50 ZEAMX (ZEAMX: corn (Zea mays)) | GR80 ZEAMX (ZEAMX: corn (Zea mays)) | pest or weed control at 17.5 g/ha (ZEAMX: corn (Zea mays); [9]) | pest or weed control at 35 g/ha (ZEAMX: corn (Zea mays); [9]) | pest or weed control at 70 g/ha (ZEAMX: corn (Zea mays); [9]) | pest or weed control at 140 g/ha (ZEAMX: corn (Zea mays); [10]) | pest or weed control at 17.5 g/ha [6, 11] | pest or weed control at 35 g/ha [6, 11] | pest or weed control at 70 g/ha [6, 11] | GR20 CHEAL [6] | GR50 CHEAL [6] | GR80 CHEAL [6] | also measured |
| --- | --- | --- | --- | --- | --- | --- | --- | --- | --- | --- | --- | --- | --- | --- | --- | --- | --- | --- | --- | --- | --- |
| COC(=O)c1nc(Cl)cc(N)c1OC [Compound 1, methyl 4-amino-6-chloro-3-methoxypicolinate] | 40% | 85% | 95% | 95% | 10.5 g ai/ha | 19.4 g ai/ha | 35.9 g ai/ha | >280 g ai/ha | >280 g ai/ha | >280 g ai/ha | 0% | 0% | 0% | 0% | 90% | 90% | 95% | <17.5 g ai/ha | <17.5 g ai/ha | <17.5 g ai/ha | pest or weed control at 280 g/ha ([1]; Table 3, 280 g ai/ha): 0%; pest or weed control at 280 g/ha ([2]; Abutilon theophrasti, post-emergence, 336 h, Table 3, 280 g ai/ha, read-out: Visual Growth Reduction (%)-14 Days after Application ABUTH): 100%; pest or weed control at 280 g/ha ([2]; Abutilon theophrasti, post-emergence, 336 h, Table 4, 280 g ai/ha, read-out: Visual Growth Reduction (%)-14 Days after Application ABUTH): 100%; pest or weed control at 280 g/ha ([3]; Table 3, 280 g ai/ha): 0%; pest or weed control at 280 g/ha ([4]; Table 3, 280 g ai/ha): 100%; pest or weed control at 280 g/ha (ZEAMX: corn (Zea mays); Zea mays, post-emergence, 336 h, Table 3, 280 g ai/ha, read-out: Visual Growth Reduction (%)-14 Days after Application ZEAMX): 0%; pest or weed control at 280 g/ha (ZEAMX: corn (Zea mays); Zea mays, post-emergence, 336 h, Table 4, 280 g ai/ha, read-out: Visual Growth Reduction (%)-14 Days after Application ZEAMX): 0%; pest or weed control at 280 g/ha ([5]; Table 3, 280 g ai/ha): 0%; pest or weed control at 280 g/ha ([6]; Chenopodium album, post-emergence, 336 h, Table 3, 280 g ai/ha, read-out: Visual Growth Reduction (%)-14 Days after Application CHEAL): 100%; pest or weed control at 140 g/ha ([6]; Chenopodium album, post-emergence, 336 h, Table 4, 140 g ai/ha, read-out: Visual Growth Reduction (%)-14 Days after Application CHEAL): 100%; Visual Growth Reduction (%)-14 Days after Application CHEAL ([6]; Table 4, 280 g ai/ha): 100%; melting point: 78 to 79 °C |
| COC(=O)c1nc(-c2ccc(Cl)cc2F)cc(N)c1OC [Compound 6, Methyl 4-amino-6-(4-chloro-2-fluorophenyl)-3-methoxypicolinate] | 75% | 80% | 85% | 85% | <8.75 g ai/ha | 6.42 g ai/ha | 38.1 g ai/ha | 132 g ai/ha | >140 g ai/ha | >140 g ai/ha | 0% | 0% | 10% | 20% | 100% | 100% | 100% | <8.75 g ai/ha | <8.75 g ai/ha | <8.75 g ai/ha | pest or weed control at 140 g/ha ([1]; Table 3, 140 g ai/ha): 5%; pest or weed control at 140 g/ha ([2]; Abutilon theophrasti, post-emergence, 336 h, Table 3, 140 g ai/ha, read-out: Visual Growth Reduction (%)-14 Days after Application ABUTH): 60%; pest or weed control at 8.75 g/ha ([2]; Abutilon theophrasti, post-emergence, 336 h, Table 4, 8.75 g ai/ha, read-out: Visual Growth Reduction (%)-14 Days after Application ABUTH): 50%; pest or weed control at 140 g/ha ([3]; Table 3, 140 g ai/ha): 0%; pest or weed control at 140 g/ha ([4]; Table 3, 140 g ai/ha): 100%; pest or weed control at 140 g/ha (ZEAMX: corn (Zea mays); Zea mays, post-emergence, 336 h, Table 3, 140 g ai/ha, read-out: Visual Growth Reduction (%)-14 Days after Application ZEAMX): 0%; pest or weed control at 8.75 g/ha (ZEAMX: corn (Zea mays); Zea mays, post-emergence, 336 h, Table 4, 8.75 g ai/ha, read-out: Visual Growth Reduction (%)-14 Days after Application ZEAMX): 0%; pest or weed control at 140 g/ha ([5]; Table 3, 140 g ai/ha): 20%; pest or weed control at 140 g/ha ([6]; Chenopodium album, post-emergence, 336 h, Table 3, 140 g ai/ha, read-out: Visual Growth Reduction (%)-14 Days after Application CHEAL): 100%; pest or weed control at 8.75 g/ha ([6]; Chenopodium album, post-emergence, 336 h, Table 4, 8.75 g ai/ha, read-out: Visual Growth Reduction (%)-14 Days after Application CHEAL): 90%; Visual Growth Reduction (%)-14 Days after Application CHEAL ([6]; Table 4, 140 g ai/ha): 100%; melting point: 139 to 144 °C |
